# System: THP1 cells (LPS induced TNF release)
# Experiment: Lipopolysaccharide-Activated THP1 Cell TNF Production Assay
# Type: cell-based
# Details: Homo sapiens, THP-1; THP1 cells, bacterial LPS, secreted TNF-α after 3 h at 37° C.; read-out: IC50 values in the THP1 cell assay (LPS induced TNF release)
# Method: Lipopolysaccharide-Activated THP1 Cell TNF Production Assay
# THP1 cells are resuspended in fresh THP1 media (RPMI 1640, 10% heat-inactivated FBS, 1×PGS, 1×NEAA, plus 30 μM βME) at a concentration of 1E6/mL. One hundred microliters of cells per well are plated in a polystyrene 96-well tissue culture. One microgram per mL of bacterial LPS is prepared in THP1 media and is transferred to the wells. Test compounds are dissolved in 100% DMSO and are serially diluted 3 fold in a polypropylene 96-well microtiter plate (drug plate). HI control and LO control wells contain only DMSO. One microliter of test compound from the drug plate followed by 10 μL of LPS are transferred to the cell plate. The treated cells are induced to synthesize and secrete TNF-α at 37° C. for 3 h. Forty microliters of conditioned media are transferred to a 96-well polypropylene plate containing 110 μL of ECL buffer (50 mM Tris-HCl pH 8.0, 100 mM NaCl, 0.05% Tween 20, 0.05% NaN3 and 1% FBS) supplemented with 0.44 nM MAB610 monoclonal Ab (R&D Systems), 0.34 nM ruthenylated AF210NA polyclonal Ab (R&D Systems) and 44 μg/mL sheep anti-mouse M280 Dynabeads (Dynal). After a 2 h incubation at RT with shaking, the reaction is read on the ECL M8 Instrument (IGEN Inc.). A low voltage is applied to the ruthenylated TNF-α immune complexes, which in the presence of TPA (the active component in Origlo), results in a cyclical redox reaction generating light at […]. The amount of secreted TNF-α in the presence of compound compared with that in the presence of DMSO vehicle alone (HI control) is calculated using the formula: % control (POC)=(cpd−average LO)/(average HI−average LO)*100. Data (consisting of POC and inhibitor concentration in μM) is fitted to a 4-parameter equation (y=A+((B−A)/(1+((×/C)ôD))), where A is the minimum y (POC) value, B is the maximum y (POC), C is the x (cpd concentration) at the point of inflection and D is the slope factor) using a Levenburg-Marquardt non-linear regression algorithm.
row,Compound,IC50 [µM]
1,"CN(c1ccnc(NC(C)(C)CNC(=O)OC(C)(C)C)n1)c1cc(-c2ccccc2)cc(=O)n1C [Example 161, tert-Butyl 2-methyl-2-(4-(methyl(1-methyl-6-oxo-4-phenyl-1,6-dihydropyridin-2-yl)amino)pyrimidin-2-ylamino)propylcarbamate]",≤ 20
2,"CN(c1ccnc(NCCc2cccnc2)n1)c1ccnc(-c2ccsc2)n1 [Example 74, N^4-Methyl-N^2-(2-(pyridin-3-yl)ethyl)-N^4-(2-(thiophen-3-yl)pyrimidin-4-yl)-pyrimidine-2,4-diamine]",≤ 20
3,"COc1ccc(-c2cccc(N(C)c3ccnc(NCCc4ccccc4)n3)n2)cc1 [Example 140, N^4-(6-(4-Methoxyphenyl)pyridin-2-yl)-N^4-methyl-N^2-phenethylpyrimidine-2,4-diamine]",≤ 20
4,"CN(c1cccc(-c2ccco2)n1)c1ccnc(NCCc2ccccc2)n1 [Example 149, N^4-(6-(Furan-2-yl)pyridin-2-yl)-N^4-methyl-N^2-phenethylpyrimidine-2,4-diamine]",≤ 20
5,"CC(=O)N1CCC(Nc2nccc(N(C)c3ccnc(-c4ccccc4)n3)n2)CC1 [Example 22, 1-(4-(4-(Methyl(2-phenylpyrimidin-4-yl)amino)pyrimidin-2-ylamino)piperidin-1-yl)ethanone]",≤ 20
6,"C[C@@H](Cc1cccc([C@@H](C)N)c1)Nc1nccc(N(C)c2cc(-c3ccccc3)c(=O)n(C)c2)n1 [Example 179, 5-((2-((S)-1-(3-((R)-1-Aminoethyl)phenyl)propan-2-ylamino)pyrimidin-4-yl)(methyl)amino)-1-methyl-3-phenylpyridin-2(1H)-one]",≤ 20
7,"CN(c1ccnc(NCCc2ccc3c(n2)NCCC3)n1)c1ccnc(-c2ccccc2)n1 [Example 114, N^4-Methyl-N^4-(2-phenylpyrimidin-4-yl)-N^2-(2-(5,6,7,8-tetrahydro-1,8-naphthyridin-2-yl)ethyl)pyrimidine-2,4-diamine]",≤ 20
8,CNC(=O)c1cnc(-c2ccccc2)nc1Nc1ccnc(N[C@@H](C)Cc2cccc(CN)c2)n1 [(S)-4-(2-(1-(3-(aminomethyl)phenyl)-propan-2-ylamino)pyrimidin-4-ylamino)-N-methyl-2-phenylpyrimidine-5-carboxamide],≤ 20
9,"CN(c1ccnc(N[C@H]2CC[C@H](N)CC2)n1)c1ccnc(-c2ccccc2F)n1 [Example 93, N^2-(4-Aminocyclohexyl)-N^4-(2-(2-fluorophenyl)pyrimidin-4-yl)-N^4-methyl-pyrimidine-2,4-diamine]",≤ 20
10,"C[C@H](N)c1cccc(C[C@H](C)Nc2nccc(N(C)c3c[nH]c(=O)c(-c4ccccc4)c3)n2)c1 [Example 170, 5-((2-((S)-1-(3-((S)-1-Aminoethyl)phenyl)propan-2-ylamino)pyrimidin-4-yl)-(methyl)amino)-3-phenylpyridin-2(1H)-one]",≤ 20
11,C[C@@H](Cc1cccc(CN)c1)Nc1nccc(N(C)c2c[nH]c(=O)c(-c3ccccc3F)c2)n1 [Example 169],≤ 20
12,"CN(c1cc(-c2ccccc2)c(=O)n(C)c1)c1ccnc(NC2CCNCC2)n1 [Example 174, 1-Methyl-5-(methyl(2-(piperidin-4-ylamino)pyrimidin-4-yl)amino)-3-phenylpyridin-2(1H)-one]",≤ 20
13,"CC(Cc1cccc(CN)c1)Nc1nccc(N(C)c2c[nH]c(=O)c(-c3ccccc3)c2)n1 (centres unmarked) [Example 171, 5-((2-(1-(3-(Aminomethyl)phenyl)propan-2-ylamino)pyrimidin-4-yl)(methyl)-amino)-3-phenylpyridin-2(1H)-one]",≤ 20
14,"CN(c1cccc(-c2ccccc2C(F)(F)F)n1)c1ccnc(NCCc2ccccc2)n1 [Example 130, N^4-Methyl-N^2-phenethyl-N^4-(6-(2-(trifluoromethyl)phenyl)pyridin-2-yl)-pyrimidine-2,4-diamine]",≤ 20
15,CN(c1cccc(-c2ccsc2)n1)c1ccnc(NCCc2ccccc2)n1 [Example 147],≤ 20
16,"CN(c1ccnc(-c2ccccc2)n1)c1nc(NCCc2cccnc2)ncc1F [Example 70, 5-Fluoro-N^4-methyl-N^4-(2-phenylpyrimidin-4-yl)-N^2-(2-(pyridin-3-yl)ethyl)-pyrimidine-2,4-diamine]",≤ 20
17,"CN(c1ccnc(NCCc2cccnc2)n1)c1nc(-c2ccccc2)ncc1Br [Example 63, N^4-(5-Bromo-2-phenylpyrimidin-4-yl)-N^4-methyl-N^2-(2-(pyridin-3-yl)ethyl)-pyrimidine-2,4-diamine]",≤ 20
18,"CC(=O)N1CCC(Nc2nccc(N(C)c3c[nH]c(=O)c(-c4ccccc4)c3)n2)CC1 [Example 167, 5-((2-(1-Acetylpiperidin-4-ylamino)pyrimidin-4-yl)(methyl)amino)-3-phenyl-pyridin-2(1H)-one]",≤ 20
19,"CN(c1cccc(-c2ccccc2)n1)c1ccnc(N[C@H]2CC[C@H](N)CC2)n1 [Example 153, N^2-((1s,4s)-4-aminocyclohexyl)-N^4-methyl-N^4-(6-phenylpyridin-2-yl)pyrimidine-2,4-diamine]",≤ 20
20,"COc1ccccc1-c1nccc(N(C)c2ccnc(NCCc3cccnc3)n2)n1 [Example 104, N^4-(2-(2-Methoxyphenyl)pyrimidin-4-yl)-N^4-methyl-N^2-(2-(pyridin-3-yl)ethyl)-pyrimidine-2,4-diamine]",≤ 20
21,CC(C)n1cc(N(C)c2ccnc(N[C@@H](C)Cc3cccc(CN)c3)n2)cc(-c2ccccc2)c1=O [5-((2-(((1S)-2-(3-(aminomethyl)phenyl)-1-methylethyl)amino)-4-pyrimidinyl)(methyl)amino)-1-(1-methylethyl)-3-phenyl-2(1H)-pyridinone],≤ 20

# Further lines, results first:
row,IC50 [µM],Compound
1,≤ 20,"CN(c1ccnc(N[C@@H](CCN)Cc2ccccc2)n1)c1ccnc(-c2ccccc2)n1 [Example 57, (R)-N^2-(4-Amino-1-phenylbutan-2-yl)-N^4-methyl-N^4-(2-phenylpyrimidin-4-yl)pyrimidine-2,4-diamine]"
2,≤ 20,"C[C@@H](Cc1cccc(CN)c1)Nc1nccc(N(C)c2cncc(-c3ccccc3)n2)n1 [Example 122, (S)-N^2-(1-(3-(Aminomethyl)phenyl)propan-2-yl)-N^4-methyl-N^4-(6-phenylpyrazin-2-yl)pyrimidine-2,4-diamine]"
3,≤ 20,"CN(c1ccnc(N[C@H](Cc2ccccc2)CN2CCOCC2)n1)c1ccnc(-c2ccccc2)n1 [Example 53, (R)-N^4-methyl-N^2-(3-morpholino-1-phenylpropan-2-yl)-N^4-(2-phenylpyrimidin-4-yl)pyrimidine-2,4-diamine]"
4,≤ 20,"CN(c1ccnc(N[C@@H](CCNC2CC2)Cc2ccccc2)n1)c1ccnc(-c2ccccc2)n1 [Example 59, (R)-N^2-(4-(Cyclopropylamino)-1-phenylbutan-2-yl)-N^4-methyl-N^4-(2-phenyl-pyrimidin-4-yl)pyrimidine-2,4-diamine]"
5,≤ 20,"C[C@H](Nc1nccc(N(C)c2ccnc(-c3ccccc3)n2)n1)c1cccc(CCC(=O)O)c1 [Example 18, (S)-3-(3-(1-(4-(Methyl(2-phenylpyrimidin-4-yl)amino)pyrimidin-2-ylamino)-ethyl)phenyl)propanoic acid]"
6,≤ 20,"CN(c1ccnc(N[C@@H](CNC(=O)CN)Cc2ccccc2)n1)c1ccnc(-c2ccccc2)n1 [Example 52, (R)-2-Amino-N-(2-(4-(methyl(2-phenylpyrimidin-4-yl)amino)pyrimidin-2-ylamino)-3-phenylpropyl)acetamide]"
7,≤ 20,"CN(c1cccc(Cc2ccccc2)n1)c1ccnc(NCCc2ccccc2)n1 [Example 151, N^4-(6-Benzylpyridin-2-yl)-N^4-methyl-N^2-phenethylpyrimidine-2,4-diamine]"
8,≤ 20,CN(c1ccnc(-c2ccccc2)n1)c1ccnc(N2CC[C@H]2Cc2ccccc2)n1 [N-methyl-2-phenyl-N-(2-((2R)-2-(phenylmethyl)-1-azetidinyl)-4-pyrimidinyl)-4-pyrimidinamine]
9,≤ 20,"CN(c1ccnc(NC[C@H](O)c2ccccc2)n1)c1ccnc(-c2ccccc2)n1 [Example 110, (R)-2-(4-(Methyl(2-phenylpyrimidin-4-yl)amino)pyrimidin-2-ylamino)-1-phenyl-ethanol]"
10,≤ 20,"CN(c1ccnc(N[C@@H](CN)Cc2ccccc2)n1)c1ccnc(-c2ccccc2)n1 [Example 48, (R)-N^2-(1-Amino-3-phenylpropan-2-yl)-N^4-methyl-N^4-(2-phenylpyrimidin-4-yl)pyrimidine-2,4-diamine]"
11,≤ 20,"C[C@@H](Cc1cc(CN)ccc1Cl)Nc1nccc(N(C)c2ccnc(-c3ccccc3)n2)n1 [Example 42, (S)-N^2-(1-(5-(Aminomethyl)-2-chlorophenyl)propan-2-yl)-N^4-methyl-N^4-(2-phenyl-pyrimidin-4-yl)pyrimidine-2,4-diamine]"

# Source: patent US20060069110A1, “Substituted heterocyclic compounds and methods of use” (priority 2004, published 2006)
